US7691901B2, “Carotenoid analogs or derivatives for the inhibition and amelioration of inflammation” (Cardax Pharmaceuticals Inc., priority 2004, dated 2010)

System: o-tyrosine (oY/F)
Assay: Thioglycollate/Zymosan-induced peritonitis model: molar ratios of o-tyrosine (oY/F)
Assay type: in vivo, mice
Description: Thioglycollate/Zymosan—Induced Peritonitis Model: Wild-type mice were administered either 500 mg/kg body weight of disodium disuccinate astaxanthin (ddAst/Cardax™) in an oil emulsion vehicle, or normal saline (NS) as a negative control, by oral gavage at 24 hours intervals beginning 7 days prior to the induction of peritonitis. Peritonitis was induced experimentally as follows: mice were injected intraperitoneally with 1 ml of 4% by weight thioglycollate (Tg) broth, to induce the recruitment of proinflammatory cells to the peritoneum. Either 16 hours or 72 hours after recruitment, approximately half of the mice were injected intraperitoneally with 250 mg/kg body weight of zymosan (Z) for a further 4 hours. The mice not receiving zymosan underwent no further treatment. Peritoneal lavage was performed in control animals or animals treated with (ddAst) 16 hours post Tg injection, or 20 h following the combination of both Tg injection (16 hours) followed by Z injection (4 hours), as indicated (Tg/Z). Peritoneal lavages were performed with phosphate-buffered saline containing antioxidant (0.1 mM butylated hydroxytoluene (BHT)) and 2 mM of the metal chelator diethylenetriamine pentaacetic acid (DTPA) according to established practices in the art. The lavage suspensions were transferred to screw-capped tubes under an argon atmosphere, and immediately centrifuged at 1000 rpm in a table top microcentrifuge for 10 min at 4° C. to remove whole cells and debris. All analyses of lipid peroxidation products was performed on cell-free lavage supernatants. Cell pellets were resuspended in phosphate-buffered saline containing 0.1 mM BHT and 0.1 mM DTPA, and differential cell counts (macrophages, monocytes, eosinophils, lymphocytes, neutrophils, and erythrocytes) were performed on cytospun preparations of isolated cells according to established procedures in the art.
Electrospray ionization tandem mass spectrometry was used to simultaneously quantify individual molecular species of HETEs, HPETEs, the prostaglandin PGF2α, F2-isoprostanoids, hydroxy- and hydroperoxy-octadecadienoic acids (H(P)ODEs), and their precursors, arachidonic acid (AA) and linoleic acid (LA). Additionally, the molar ratios of o-tyrosine (oY/F). were measured.

[1] = 16 Hour Thioglycollate/4 Hour Zymosan
[2] = 72 Hour Thioglycollate/4 Hour Zymosan

Q: For `CC1=C(/C=C/C(C)=C/C=C/C(C)=C/C=C/C=C(C)/C=C/C=C(C)/C=C/C2=C(C)C(=O)C(OC(=O)CCC(=O)O)CC2(C)C)C(C)(C)CC(OC(=O)CCC(=O)O)C1=O` (centres unmarked) [Cardax, disodium disuccinate astaxanthin], which “oY/F (mmol/mol), MEAN” value [1] is on record?
A: 0.145 mmol/mol

Q: What about the “oY/F (mmol/mol), MEDIAN” value [1] of the same compound?
A: 0.117 mmol/mol

Q: And the “oY/F (mmol/mol), MEAN” value (16 Hour Thioglycollate)?
A: 0.678 mmol/mol

Q: And the “oY/F (mmol/mol), MEDIAN” value (16 Hour Thioglycollate)?
A: 0.521 mmol/mol

Q: What about the “oY/F (mmol/mol), MEAN” value [2] of the same compound?
A: 0.249 mmol/mol

Q: And the “oY/F (mmol/mol), MEDIAN” value [2]?
A: 0.118 mmol/mol

Q: And the “oY/F (mmol/mol), MEAN” value (72 Hour Thioglycollate)?
A: 0.257 mmol/mol

Q: What about the “oY/F (mmol/mol), MEDIAN” value (72 Hour Thioglycollate) of the same compound?
A: 0.198 mmol/mol

Q: And the “oY/F compared to NS” value (16 hours Tg/4 hour Z, 500 mg/kg oral gavage)?
A: significant decrease

Q: And the “oY/F (mmol/mol), MEAN” value (Baseline)?
A: 0.595 mmol/mol

Q: And the “oY/F (mmol/mol), MEDIAN” value (Baseline)?
A: 0.565 mmol/mol
